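In this assay, cells in 96-well plates receive the compound at five concentrations for 48 hours. Endpoints are linearly interpolated between the surrounding concentrations. GI50 is the concentration that inhibits growth by half. TGI: concentration producing complete growth inhibition.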 Bounds are passed on as bounds.

Among the test systems are ACHN renal; CCRF-CEM leukemia; EKVX NSCLC; HL-60(TB) leukemia; MOLT-4 leukemia; RPMI-8226 leukemia; TK-10 renal; U251 CNS; UACC-257 melanoma; CAKI-1 renal.
Common to all, as to assay: NCI-60 cell line screen, 48 h

Turning to `O=C(CCN1CCOCC1)Nc1cccc(-n2cc(-c3ccncc3)c(-c3ccc(Cl)c(O)c3)n2)c1`, the GI50 is 2.5 µM with ACHN renal; 3.43 µM with CCRF-CEM leukemia; 3.63 µM with EKVX NSCLC; 2.37 µM with HL-60(TB) leukemia; 2.65 µM in the experiment with MOLT-4 leukemia; 2.8 µM in the experiment on RPMI-8226 leukemia. Moreover, the results for the GI50 in the experiment with TK-10 renal, in the experiment with U251 CNS and in the experiment on UACC-257 melanoma were 8.18 µM, 3.32 µM and 1.9 µM, respectively. The TGI with ACHN renal came to 12.5 µM; in the experiment on CCRF-CEM leukemia, 15.9 µM; in the experiment on EKVX NSCLC, 20.4 µM; in the experiment on HL-60(TB) leukemia it was 6.61 µM; with MOLT-4 leukemia, 11.9 µM; with RPMI-8226 leukemia it was 15.1 µM. For the same compound, the TGI came out at 20.7 µM with TK-10 renal, 12.8 µM with U251 CNS and 4.42 µM in the experiment on UACC-257 melanoma.
As for `Cc1ccc(C)c(N2C(=O)C(=O)C(c3nc4ccccc4o3)/C(=N/N)C2=O)c1` (configuration not stated), the TGI with ACHN renal, in the experiment on CAKI-1 renal, with CCRF-CEM leukemia, with EKVX NSCLC, in the experiment on HL-60(TB) leukemia and with MOLT-4 leukemia was greater than 100 µM each time. Further, the TGI in the experiment on TK-10 renal, in the experiment on U251 CNS and in the experiment on UACC-257 melanoma was greater than 100 µM throughout.
`COc1cc(OC)c2sc(-c3ccc(-n4cncc4-c4cc(OC)c(OC)c(OC)c4)cc3)nc2c1`: the GI50 in the experiment with ACHN renal is 6.67 µM; with CCRF-CEM leukemia it was 3.95 µM; in the experiment with EKVX NSCLC, 5.09 µM; in the experiment on HL-60(TB) leukemia it was 3.3 µM; in the experiment with MOLT-4 leukemia, 4.24 µM; with RPMI-8226 leukemia, 5.39 µM. In addition, the GI50 in the experiment with TK-10 renal was 9.4 µM; with U251 CNS, 4.15 µM; in the experiment on UACC-257 melanoma, greater than 100 µM. Also, the TGI in the experiment with ACHN renal, in the experiment on CCRF-CEM leukemia, in the experiment with EKVX NSCLC, in the experiment with HL-60(TB) leukemia, in the experiment with MOLT-4 leukemia and in the experiment on RPMI-8226 leukemia was greater than 100 µM throughout. Also, the TGI in the experiment with TK-10 renal, in the experiment with U251 CNS and in the experiment on UACC-257 melanoma was greater than 100 µM in each case.
`O=C1c2ccc3c4ccccc4n(-c4ccccc4)c3c2C(=O)N1c1ccc(Cl)cc1`: the TGI in the experiment on ACHN renal, with CAKI-1 renal, in the experiment on CCRF-CEM leukemia, in the experiment with EKVX NSCLC, with HL-60(TB) leukemia and in the experiment on MOLT-4 leukemia was greater than 100 µM each time. Besides, the TGI in the experiment on TK-10 renal, in the experiment with U251 CNS and in the experiment with UACC-257 melanoma was greater than 100 µM throughout.
Take `COc1ccc(-c2cc(-c3ccc(Nc4ccnc5cc(Cl)ccc45)cc3)nc(N3CCOCC3)n2)cc1`: the GI50 is greater than 100 µM in the experiment on EKVX NSCLC, 4.8 µM in the experiment on HL-60(TB) leukemia and 3.79 µM with RPMI-8226 leukemia. Further, the TGI in the experiment with EKVX NSCLC, with HL-60(TB) leukemia and in the experiment on RPMI-8226 leukemia was greater than 100 µM throughout.
As to `CCCCCCCCCCCCCCCCCCC1=C(O)C(=O)C=C(OC)C1=O`, the TGI in the experiment with ACHN renal is greater than 100 µM; in the experiment on CAKI-1 renal, greater than 100 µM; with EKVX NSCLC, greater than 100 µM; with HL-60(TB) leukemia, 80.8 µM; with MOLT-4 leukemia, greater than 100 µM; in the experiment with TK-10 renal, greater than 100 µM. In addition, the TGI with U251 CNS and in the experiment on UACC-257 melanoma was greater than 100 µM in each case.
Turning to `CCOC(=O)C1=C(Nc2ccc(Br)cc2)OCC1=O`, the TGI with ACHN renal was greater than 100 µM; in the experiment with CAKI-1 renal, greater than 100 µM; with CCRF-CEM leukemia, greater than 100 µM; in the experiment on EKVX NSCLC it was greater than 100 µM; in the experiment on HL-60(TB) leukemia, 33.9 µM; with MOLT-4 leukemia it was greater than 100 µM. Besides, the TGI in the experiment with TK-10 renal, in the experiment with U251 CNS and in the experiment on UACC-257 melanoma was greater than 100 µM each time.
Consider `COc1cc(/C=C2\CCC/C(=C\c3ccc(OCC4CO4)c(OC)c3)C2=O)ccc1OCC1CO1` (configuration not stated), for which the GI50 with CAKI-1 renal is 3.3 µM; in the experiment on CCRF-CEM leukemia, 2.5 µM; in the experiment with HL-60(TB) leukemia, 3.59 µM; in the experiment on MOLT-4 leukemia it was 2.91 µM; with TK-10 renal, 4.04 µM; in the experiment on U251 CNS, 2.11 µM. In addition, the GI50 in the experiment on UACC-257 melanoma was 1.82 µM. For the same compound, the TGI was greater than 100 µM in the experiment with CAKI-1 renal; greater than 100 µM in the experiment with CCRF-CEM leukemia; greater than 100 µM in the experiment on HL-60(TB) leukemia; 34.1 µM in the experiment with MOLT-4 leukemia; 17.6 µM in the experiment with TK-10 renal; 5.27 µM in the experiment with U251 CNS. The compound further registered a TGI in the experiment on UACC-257 melanoma of 3.91 µM.
For `C=CCn1c(SCC(=O)Nc2ccc(C(=O)/C=C/c3cc(OC)c(OC)c(OC)c3)cc2)nnc1-c1ccc(OC)cc1`, the GI50 with CCRF-CEM leukemia is 0.344 µM; with EKVX NSCLC, 1.33 µM; in the experiment with HL-60(TB) leukemia, 0.473 µM; in the experiment on MOLT-4 leukemia it was 0.378 µM; in the experiment on RPMI-8226 leukemia it was 0.202 µM; in the experiment with TK-10 renal, 1.6 µM. In addition, in the experiment on U251 CNS, the GI50 is 0.289 µM. For the same compound, the TGI in the experiment on CCRF-CEM leukemia is greater than 100 µM; in the experiment on EKVX NSCLC, 64 µM; in the experiment on MOLT-4 leukemia it was greater than 100 µM; with RPMI-8226 leukemia, 0.68 µM; with TK-10 renal, 6.18 µM; in the experiment on U251 CNS it was 0.939 µM.
With `C[Si](C)(C)CN1C(=O)c2ccccc2C1(O)c1ccccc1` (configuration not stated), the TGI was greater than 100 µM with ACHN renal; greater than 91.6 µM in the experiment with CAKI-1 renal; greater than 100 µM in the experiment on CCRF-CEM leukemia; greater than 100 µM in the experiment on EKVX NSCLC; greater than 100 µM in the experiment with HL-60(TB) leukemia; greater than 100 µM in the experiment on MOLT-4 leukemia. In addition, the TGI in the experiment with TK-10 renal, with U251 CNS and in the experiment with UACC-257 melanoma was greater than 100 µM throughout.
On to `NCCN.O=C([O-])[O-].O=C([O-])[O-].[Co+3].[K+]`, for which the GI50 in the experiment on ACHN renal, in the experiment on CCRF-CEM leukemia, in the experiment with EKVX NSCLC, with HL-60(TB) leukemia, in the experiment with MOLT-4 leukemia and in the experiment on RPMI-8226 leukemia was greater than 100 µM throughout. Also, the GI50 in the experiment on TK-10 renal, in the experiment on U251 CNS and in the experiment on UACC-257 melanoma was greater than 100 µM in each case. Besides, the TGI in the experiment on ACHN renal, in the experiment with CCRF-CEM leukemia, with EKVX NSCLC, with HL-60(TB) leukemia, in the experiment with MOLT-4 leukemia and with RPMI-8226 leukemia was greater than 100 µM throughout. For the same compound, the TGI with TK-10 renal, in the experiment on U251 CNS and in the experiment with UACC-257 melanoma was greater than 100 µM each time.
For `COc1cc2c3c(n(CCCN(C)CCO)c(=O)c2cc1OC)-c1cc2c(cc1C3=O)OCO2`, the GI50 in the experiment on ACHN renal was 0.277 µM; in the experiment on CAKI-1 renal, 0.936 µM; with EKVX NSCLC it was greater than 44.4 µM; in the experiment on MOLT-4 leukemia, less than 0.013 µM; in the experiment on RPMI-8226 leukemia, 1.45 µM; with TK-10 renal, 81.7 µM. The figures for the GI50 with U251 CNS and in the experiment with UACC-257 melanoma were 0.814 µM and greater than 62.6 µM, respectively. Also, the TGI in the experiment with ACHN renal was 4.33 µM; in the experiment with CAKI-1 renal, greater than 100 µM; in the experiment on CCRF-CEM leukemia it was 0.473 µM; with EKVX NSCLC it was greater than 100 µM; with RPMI-8226 leukemia it was 8.94 µM; in the experiment with TK-10 renal it was greater than 100 µM. Further, the TGI in the experiment with U251 CNS and in the experiment with UACC-257 melanoma was greater than 100 µM in each case.
Consider `Clc1nc(Cl)c2ncn(Cc3ccccc3Cn3cnc4c(Cl)nc(Cl)nc43)c2n1`, for which the GI50 in the experiment on ACHN renal was 1.59 µM; with CAKI-1 renal, 2.32 µM; in the experiment on CCRF-CEM leukemia, 1.42 µM; in the experiment on EKVX NSCLC, 1.36 µM; with HL-60(TB) leukemia it was 1.79 µM; in the experiment with MOLT-4 leukemia, 1.99 µM. For the same compound, the GI50 with TK-10 renal was 2.93 µM; with U251 CNS it was 2.05 µM; in the experiment on UACC-257 melanoma it was 9.62 µM. In addition, the TGI is 2.96 µM in the experiment with ACHN renal; 6.41 µM in the experiment with CAKI-1 renal; 3.14 µM in the experiment with CCRF-CEM leukemia; 3.02 µM with EKVX NSCLC; 9.14 µM with HL-60(TB) leukemia; 5.13 µM in the experiment with MOLT-4 leukemia. Also, the TGI in the experiment with TK-10 renal worked out at 11 µM; in the experiment with U251 CNS, 4.63 µM; with UACC-257 melanoma, 25.4 µM.
Take `CSc1ccc2c(cc1=O)[C@@H](NC(=O)c1cc(O)c(O)c(O)c1)CCc1cc(O)c(O)c(O)c1-2`: the TGI is greater than 100 µM in the experiment on ACHN renal; 18.1 µM in the experiment on CCRF-CEM leukemia; 56.7 µM in the experiment with EKVX NSCLC; 40.7 µM in the experiment with HL-60(TB) leukemia; 45.6 µM in the experiment on MOLT-4 leukemia; greater than 100 µM with TK-10 renal. Further, the TGI in the experiment with U251 CNS was 37.7 µM; in the experiment with UACC-257 melanoma, 34.3 µM.
Regarding `N#Cc1c(-c2ccco2)cc(-c2ccc(N)cc2)[nH]c1=O`, the TGI in the experiment with ACHN renal, in the experiment on CCRF-CEM leukemia, in the experiment with EKVX NSCLC, in the experiment on HL-60(TB) leukemia, in the experiment with MOLT-4 leukemia and in the experiment on RPMI-8226 leukemia was greater than 100 µM throughout. Further, the TGI in the experiment on TK-10 renal, with U251 CNS and with UACC-257 melanoma was greater than 100 µM throughout.
With `CCc1nc(Cl)c(Cl)c(Cl)n1`, the TGI with ACHN renal, with CCRF-CEM leukemia, with EKVX NSCLC, in the experiment on HL-60(TB) leukemia, with MOLT-4 leukemia and with RPMI-8226 leukemia was greater than 100 µM in each case. The TGI in the experiment with TK-10 renal, in the experiment on U251 CNS and in the experiment on UACC-257 melanoma was greater than 100 µM each time.
Turning to `NCCCn1c2c(c3ccccc3c1=O)C(=O)c1ccccc1-2`, the GI50 in the experiment on ACHN renal was less than 0.0359 µM; in the experiment with CAKI-1 renal, 0.0435 µM; with CCRF-CEM leukemia it was less than 0.0462 µM; in the experiment on EKVX NSCLC it was 0.539 µM; with MOLT-4 leukemia, 0.0363 µM; in the experiment on TK-10 renal it was 0.425 µM. Besides, the GI50 was 0.0888 µM with U251 CNS and 0.544 µM in the experiment on UACC-257 melanoma. Besides, the TGI in the experiment on CAKI-1 renal was determined as 0.364 µM; with CCRF-CEM leukemia, 0.375 µM; in the experiment with EKVX NSCLC, 2.9 µM; with MOLT-4 leukemia it was 0.7 µM; in the experiment with RPMI-8226 leukemia, 0.528 µM; in the experiment on TK-10 renal it was 4.19 µM. The TGI is 1.42 µM with U251 CNS and 2.19 µM in the experiment with UACC-257 melanoma.
